Test results published in US9695155B2, “Herbicidal substituted pyrimidinyloxy benzene compounds” (E. I. DU PONT DE NEMOURS AND COMPANY, priority 2013, dated 2017).

Legend:
barnyardgrass [1] = experiment: Test A preemergence; format: in vivo, Echinochloa crus-galli; conditions: for Plant response rating, Barnyardgrass: 0 to 100 scale where 0 is no effect and 100 is complete control
Summary of the method: (§1)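 Greenhouse pot test, loam/sand soil. Formulation: non-phytotoxic solvent mix plus surfactant. Pre: directed spray onto soil after sowing. Post: plants at 1–2 leaf, 2–10 cm. Rated visually vs untreated controls at ~10 d, 0 (no effect) to 100 (complete control).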

kochia [2] = experiment: Test A preemergence; format: in vivo, Kochia scoparia; conditions: for Plant response rating, Kochia: 0 to 100 scale where 0 is no effect and 100 is complete control
Summary of the method: as §1

ragweed [3] = experiment: Test A preemergence; format: in vivo, Ambrosia elatior; conditions: for Plant response rating, Ragweed: 0 to 100 scale where 0 is no effect and 100 is complete control
Summary of the method: as §1

Italian ryegrass [4] = experiment: Test A preemergence; format: in vivo, Lolium multiflorum; conditions: for Plant response rating, Ryegrass, Italian: 0 to 100 scale where 0 is no effect and 100 is complete control
Summary of the method: as §1

giant foxtail [5] = experiment: Test A preemergence; format: in vivo, Setaria faberii; conditions: for Plant response rating, Foxtail, Giant: 0 to 100 scale where 0 is no effect and 100 is complete control
Summary of the method: as §1

pigweed [6] = experiment: Test A preemergence; format: in vivo, Amaranthus retroflexus; conditions: for Plant response rating, Pigweed: 0 to 100 scale where 0 is no effect and 100 is complete control
Summary of the method: as §1

barnyardgrass [7] = experiment: Test A postemergence; format: in vivo, Echinochloa crus-galli
Summary of the method: as §1

kochia [8] = experiment: Test A postemergence; format: in vivo, Kochia scoparia
Summary of the method: as §1

ragweed [9] = experiment: Test A postemergence; format: in vivo, Ambrosia elatior; conditions: 0 to 100 scale, 0 no effect, 100 complete control
Summary of the method: as §1

Italian ryegrass [10] = experiment: Test A postemergence; format: in vivo, Lolium multiflorum; conditions: 0 to 100 scale, 0 no effect, 100 complete control
Summary of the method: as §1

giant foxtail [11] = experiment: Test A postemergence; format: in vivo, Setaria faberii
Summary of the method: as §1

pigweed [12] = experiment: Test A postemergence; format: in vivo, Amaranthus retroflexus; conditions: 0 to 100 scale, 0 no effect, 100 complete control
Summary of the method: as §1

wheat = experiment: Test A postemergence; format: in vivo, Triticum aestivum; conditions: 0 to 100 scale, 0 no effect, 100 complete control
Summary of the method: as §1

corn = experiment: Test A postemergence; format: in vivo, Zea mays
Summary of the method: as §1

blackgrass = experiment: Test A postemergence; format: in vivo, Alopecurus myosuroides
Summary of the method: as §1

galium = experiment: Test A postemergence; format: in vivo, Galium aparine
Summary of the method: as §1

rice = experiment: Test B flooded paddy test; format: in vivo, Oryza sativa; conditions: Flood, 250 g ai/ha; 0 to 100 scale where 0 is no effect and 100 is complete control
Summary of the method: (§2)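 Visual ratings on a 0 to 100 scale, where 100 means complete control, compared treated plants with controls after 13 to 15 days in a greenhouse. Treatment went into paddy water 3 cm deep over the soil, applied to plants at the 2-leaf stage.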

sedge, umbrella = experiment: Test B flooded paddy test; format: in vivo, Cyperus difformis; conditions: Flood, 250 g ai/ha; 0 to 100 scale where 0 is no effect and 100 is complete control
Summary of the method: as §2

Heteranthera limosa = experiment: Test B flooded paddy test; format: in vivo; conditions: Flood, 250 g ai/ha; 0 to 100 scale where 0 is no effect and 100 is complete control
Summary of the method: as §2

barnyardgrass [13] = experiment: Test B flooded paddy test; format: in vivo, Echinochloa crus-galli; conditions: Flood, 250 g ai/ha; 0 to 100 scale where 0 is no effect and 100 is complete control
Summary of the method: as §2

[14] = 31 g ai/ha, 0 to 100 scale, 0 no effect, 100 complete control
[15] = 125 g ai/ha, 0 to 100 scale where 0 is no effect and 100 is complete control
[16] = 31 g ai/ha, visual, approximately 10 days
[17] = 125 g ai/ha, 0 to 100 scale, 0 no effect, 100 complete control

With `N#Cc1cccc(Oc2ncc(Cl)cn2)c1-n1cc(OCC(F)F)cn1` [Compound 99] the “Barnyardgrass plant response rating (0 to 100 scale)” value (barnyardgrass [1]; 31 g ai/ha) was 80, the “Plant response rating, Barnyardgrass” value (barnyardgrass [1]; 125 g ai/ha) was 90 and the “Kochia plant response rating (0 to 100 scale)” value (kochia [2]; 31 g ai/ha) was 100. For the same molecule, the “Plant response rating, Kochia” value (kochia [2]; 125 g ai/ha) was 100, the “Ragweed plant response rating (0 to 100 scale)” value (ragweed [3]; 31 g ai/ha) was 70 and the “Plant response rating, Ragweed” value (ragweed [3]; 125 g ai/ha) was 90. For the same molecule, the “Ryegrass, Italian plant response rating (0 to 100 scale)” value (Italian ryegrass [4]; 31 g ai/ha) was 0, the “Plant response rating, Ryegrass, Italian” value (Italian ryegrass [4]; 125 g ai/ha) was 30 and the “Foxtail, Giant plant response rating (0 to 100 scale)” value (giant foxtail [5]; 31 g ai/ha) was 100. The “Plant response rating, Foxtail, Giant” value (giant foxtail [5]; 125 g ai/ha) was 100, the “Pigweed plant response rating (0 to 100 scale)” value (pigweed [6]; 31 g ai/ha) was 100 and the “Plant response rating, Pigweed” value (pigweed [6]; 125 g ai/ha) was 100. For the same molecule, the “Plant response rating, Barnyardgrass” value (barnyardgrass [7]; [14]) was 100, the “Plant response rating, Barnyardgrass” value (barnyardgrass [7]; [15]) was 100 and the “Plant response rating, Kochia” value (kochia [8]; [14]) was 100. The “Plant response rating, Kochia” value (kochia [8]; [15]) was 100, the “Plant response rating, Ragweed” value (ragweed [9]; 31 g ai/ha) was 30 and the “Plant response rating, Ryegrass, Italian” value (Italian ryegrass [10]; 31 g ai/ha) was 20. The “Plant response rating, Foxtail, Giant” value (giant foxtail [11]; [14]) was 90, the “Plant response rating, Foxtail, Giant” value (giant foxtail [11]; [15]) was 100 and the “Plant response rating, Pigweed” value (pigweed [12]; 31 g ai/ha) was 100. The “Plant response rating, Wheat” value (wheat; 31 g ai/ha) was 50, the “Plant response rating, Corn” value (corn; [14]) was 20 and the “Plant response rating, Corn” value (corn; [15]) was 90. The “Plant response rating, Blackgrass” value (blackgrass; [14]) was 50, the “Plant response rating, Blackgrass” value (blackgrass; [15]) was 90 and the “Plant response rating, Galium” value (galium; [14]) was 90. The “Plant response rating, Galium” value (galium; [15]) was 100, the “Plant response rating, Rice” value (rice) was 0 and the “Plant response rating, Sedge, Umbrella” value (sedge, umbrella) was 0. For the same molecule, the “Plant response rating, Ducksalad” value (Heteranthera limosa) was 0 and the “Plant response rating, Barnyardgrass” value (barnyardgrass [13]) was 0.

For `Clc1cnc(Oc2ccccc2-n2cccc2)nc1` [Compound 269], the “Plant response rating, Barnyardgrass” value (barnyardgrass [1]; [16]) was 0, the “Barnyardgrass plant response rating (0 to 100 scale, 0 is no effect, 100 is complete control)” value (barnyardgrass [1]; 125 g ai/ha) was 0 and the “Plant response rating, Kochia” value (kochia [2]; [16]) was 0. For the same molecule, the “Kochia plant response rating (0 to 100 scale)” value (kochia [2]; 125 g ai/ha) was 0, the “Plant response rating, Ragweed” value (ragweed [3]; [16]) was 0 and the “Ragweed plant response rating (0 to 100 scale)” value (ragweed [3]; 125 g ai/ha) was 0. For the same molecule, the “Plant response rating, Ryegrass, Italian” value (Italian ryegrass [4]; [16]) was 0, the “Ryegrass, Italian plant response rating (0 to 100 scale)” value (Italian ryegrass [4]; 125 g ai/ha) was 0 and the “Plant response rating, Foxtail, Giant” value (giant foxtail [5]; [16]) was 0. For the same molecule, the “Foxtail, Giant plant response rating (0 to 100 scale)” value (giant foxtail [5]; 125 g ai/ha) was 0, the “Plant response rating, Pigweed” value (pigweed [6]; [16]) was 0 and the “Pigweed plant response rating (0 to 100 scale)” value (pigweed [6]; 125 g ai/ha) was 0. The “Plant response rating, Barnyardgrass” value (barnyardgrass [7]; [14]) was 0, the “Plant response rating, Barnyardgrass” value (barnyardgrass [7]; [17]) was 0 and the “Plant response rating, Kochia” value (kochia [8]; [14]) was 0. For the same molecule, the “Plant response rating, Kochia” value (kochia [8]; [17]) was 0, the “Plant response rating, Ragweed” value (ragweed [9]; 31 g ai/ha) was 0 and the “Plant response rating, Ragweed” value (ragweed [9]; 125 g ai/ha) was 0. For the same molecule, the “Plant response rating, Ryegrass, Italian” value (Italian ryegrass [10]; 31 g ai/ha) was 0, the “Plant response rating, Ryegrass, Italian” value (Italian ryegrass [10]; 125 g ai/ha) was 0 and the “Plant response rating, Foxtail, Giant” value (giant foxtail [11]; [14]) was 0. For the same molecule, the “Plant response rating, Foxtail, Giant” value (giant foxtail [11]; [17]) was 0, the “Plant response rating, Pigweed” value (pigweed [12]; 31 g ai/ha) was 0 and the “Plant response rating, Pigweed” value (pigweed [12]; 125 g ai/ha) was 0. For the same molecule, the “Plant response rating, Wheat” value (wheat; 31 g ai/ha) was 0, the “Plant response rating, Wheat” value (wheat; 125 g ai/ha) was 0 and the “Plant response rating, Corn” value (corn; [14]) was 0. The “Plant response rating, Corn” value (corn; [17]) was 0, the “Plant response rating, Blackgrass” value (blackgrass; [14]) was 0 and the “Plant response rating, Blackgrass” value (blackgrass; [17]) was 0. For the same molecule, the “Plant response rating, Galium” value (galium; [14]) was 0, the “Plant response rating, Galium” value (galium; [17]) was 0 and the “Plant response rating, Rice” value (rice) was 0. For the same molecule, the “Plant response rating, Sedge, Umbrella” value (sedge, umbrella) was 0, the “Plant response rating, Ducksalad” value (Heteranthera limosa) was 0 and the “Plant response rating, Barnyardgrass” value (barnyardgrass [13]) was 0.
